Source: patent publication US7604939B2, “Methods of identifying active BRM expression-promoting HDAC inhibitors” (The Regents of the University of Michigan, priority 2005, dated 2009)
Where two headings read alike, the source gives them in different places. Where a SMILES comes first, the peptide text is derived from it. [ ]: non-standard residue; d: D form. Aoe = N[C@@H](CCCCCC(=O)[C@@H]1CO1)C(=O)O

How the values were obtained:
[1] = target: HDAC3 (Homo sapiens, UniProt O15379); conditions: cited from earlier work; for IC50: read-out: IC50 HDAC3
[2] = target: T1, HDAC10 (Homo sapiens, UniProt Q969S8); conditions: Class 2 HDAC; cited from earlier work
T1 sequence (Q969S8 1-669): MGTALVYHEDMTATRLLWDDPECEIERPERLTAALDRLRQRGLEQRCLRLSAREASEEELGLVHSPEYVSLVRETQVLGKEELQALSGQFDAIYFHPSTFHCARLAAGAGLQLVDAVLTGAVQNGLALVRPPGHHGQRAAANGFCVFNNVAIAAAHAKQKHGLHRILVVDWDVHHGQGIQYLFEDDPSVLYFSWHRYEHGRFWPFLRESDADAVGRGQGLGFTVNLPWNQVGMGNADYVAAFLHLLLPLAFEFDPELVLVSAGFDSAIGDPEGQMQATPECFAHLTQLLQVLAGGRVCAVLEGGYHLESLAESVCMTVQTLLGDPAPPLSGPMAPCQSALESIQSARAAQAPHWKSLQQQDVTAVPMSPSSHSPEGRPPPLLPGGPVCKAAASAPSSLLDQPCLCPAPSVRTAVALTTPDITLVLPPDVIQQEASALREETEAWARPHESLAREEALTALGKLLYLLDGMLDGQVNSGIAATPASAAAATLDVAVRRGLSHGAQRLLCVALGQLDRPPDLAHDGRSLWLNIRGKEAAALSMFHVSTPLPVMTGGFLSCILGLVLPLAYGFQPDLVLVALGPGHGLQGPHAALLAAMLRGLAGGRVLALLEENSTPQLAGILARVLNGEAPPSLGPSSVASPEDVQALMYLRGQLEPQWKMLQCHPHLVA

[3] = target: T2, HDAC6 (Homo sapiens, UniProt Q9UBN7); conditions: Class 2 HDAC; cited from earlier work
T2 sequence (Q9UBN7 1-1215): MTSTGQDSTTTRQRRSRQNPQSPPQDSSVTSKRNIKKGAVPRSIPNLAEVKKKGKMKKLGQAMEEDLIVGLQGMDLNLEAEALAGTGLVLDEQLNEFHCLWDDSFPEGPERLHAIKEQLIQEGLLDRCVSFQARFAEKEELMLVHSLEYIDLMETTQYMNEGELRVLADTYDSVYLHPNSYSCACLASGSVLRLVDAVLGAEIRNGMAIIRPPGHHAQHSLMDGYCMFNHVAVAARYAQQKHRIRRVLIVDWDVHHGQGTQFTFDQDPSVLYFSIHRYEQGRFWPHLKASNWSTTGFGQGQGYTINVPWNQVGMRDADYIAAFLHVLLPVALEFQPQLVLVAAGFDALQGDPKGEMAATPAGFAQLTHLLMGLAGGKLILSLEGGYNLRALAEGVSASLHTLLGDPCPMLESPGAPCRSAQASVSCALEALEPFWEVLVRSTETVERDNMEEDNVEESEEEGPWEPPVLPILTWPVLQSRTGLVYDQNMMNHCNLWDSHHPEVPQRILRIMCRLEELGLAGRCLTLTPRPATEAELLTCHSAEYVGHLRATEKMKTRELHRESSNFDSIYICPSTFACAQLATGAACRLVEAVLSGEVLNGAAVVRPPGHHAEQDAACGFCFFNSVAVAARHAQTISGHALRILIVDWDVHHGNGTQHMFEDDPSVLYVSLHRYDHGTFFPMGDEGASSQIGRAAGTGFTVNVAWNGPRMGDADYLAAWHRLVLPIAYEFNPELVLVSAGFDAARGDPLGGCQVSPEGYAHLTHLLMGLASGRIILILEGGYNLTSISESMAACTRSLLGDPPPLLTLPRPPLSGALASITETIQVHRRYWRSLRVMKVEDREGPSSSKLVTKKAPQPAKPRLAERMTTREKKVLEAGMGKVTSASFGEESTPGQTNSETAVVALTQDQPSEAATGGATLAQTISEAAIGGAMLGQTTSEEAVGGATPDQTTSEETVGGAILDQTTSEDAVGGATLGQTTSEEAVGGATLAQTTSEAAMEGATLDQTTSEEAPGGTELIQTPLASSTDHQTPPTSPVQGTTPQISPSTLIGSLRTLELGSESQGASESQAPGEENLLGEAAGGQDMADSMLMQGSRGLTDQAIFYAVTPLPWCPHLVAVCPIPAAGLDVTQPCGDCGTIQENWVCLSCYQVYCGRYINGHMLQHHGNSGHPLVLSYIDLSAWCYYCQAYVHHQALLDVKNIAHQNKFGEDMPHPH

[4] = test system: H23 and SW13 cell lines; assay: Toxicity to BRG1/BRM-deficient cell lines; type: cell-based, human; conditions: most pronounced in the H23 and SW13 cell lines
[5] = target: HDAC1 (Homo sapiens, UniProt Q13547); conditions: cited from earlier work; for Sensitivity of HDAC1 to the inhibitor: Class 1 HDAC
[6] = target: HDAC2 (Homo sapiens, UniProt Q92769); conditions: Class 1 HDAC; cited from earlier work
[7] = test system: p16 expression; assay: p16 expression by semi-quantitative RT-PCR in control cell lines; type: cell-based, human; conditions: 5uM on three consecutive days; H23 and H441 cell lines
[8] = test system: BRM expression; assay: Time course of BRM expression in SW13 cells with butyrate and after its removal; type: cell-based, human
Description: Cells were treated daily with sodium butyrate (5 mM). Total protein was extracted at 4, 12, 24, 36, […], and 72 hours after the first dosage. Upregulation of BRM with butyrate treatment was detected after 12 hours and reached a plateau between 24 and 48 hours. GAPDH was the loading control. […] Cells were treated with sodium butyrate at a final concentration of 5 mM for three consecutive days. On the fourth day, the medium was changed and cells were harvested at various time points for protein detection. BRM protein levels declined and returned to baseline after 4-5 days. (NaBut=sodium butyrate, un=untreated).
This Example describes an analysis of the temporal effects of HDAC inhibitors on BRM re-expression. In partciular, to understand how HDAC inhibitors affected BRM expression, the time course at which BRM expression in SW13 cells was induced by continued exposure to butyrate was determined. The upregulation of BRM expression was detected by western blot analysis at 12 hours and reached a plateau at 24 hours. Little change in BRM expression occurred with continued treatment for an additional 48 hours (FIG. 3A). This process was reversible, as BRM expression returned to pretreatment levels after removal of sodium butyrate. To further characterize this effect, SW13 cells were treated with butyrate for 72 hours, sodium butyrate was removed, and BRM levels were measured by western blotting from 0 to 6 days. The BRM protein levels remained elevated for 72 hours and returned to near baseline levels at 96 hours (FIG. 3B). In parallel with BRM protein, the BRM mRNA level determined by quantative RT-PCR, also remained elevated for 3 days, returning to baseline level by 4 days. These findings indicate the changes in BRM protein levels paralleled the changes in the BRM mRNA levels.

[9] = test system: Class 3 HDACs; conditions: cited from earlier work
[10] = target: T3, HDAC8 (Homo sapiens, UniProt Q9BY41); conditions: Class 1 HDAC; cited from earlier work
T3 sequence (Q9BY41 1-377): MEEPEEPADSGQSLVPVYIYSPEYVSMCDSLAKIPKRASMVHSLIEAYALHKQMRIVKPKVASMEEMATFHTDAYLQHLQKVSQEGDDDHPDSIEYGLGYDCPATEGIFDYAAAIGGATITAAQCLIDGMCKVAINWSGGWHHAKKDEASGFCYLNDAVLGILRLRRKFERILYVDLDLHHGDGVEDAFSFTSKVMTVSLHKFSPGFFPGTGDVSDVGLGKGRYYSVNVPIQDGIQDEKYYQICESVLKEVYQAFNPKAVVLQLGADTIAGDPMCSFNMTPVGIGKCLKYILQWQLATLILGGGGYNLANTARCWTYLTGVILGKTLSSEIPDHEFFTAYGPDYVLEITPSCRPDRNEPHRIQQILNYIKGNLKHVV

[11] = test system: BRM expression; assay: BRM mRNA (RT-PCR) and protein (western blotting) expression in BRG1/BRM-deficient cell lines after treatment
Description: This example describes the treatment of cells lines with undetectable BRG1 and BRM protein expression with various HDAC inhibitors or 5-aza-deoxycytidine (5-azaCdR). […] This upregulation effect was also examined in the six other BRG1/BRM-deficient cell lines, using RT-PCR.

[12] = target: HDAC5 (Homo sapiens, UniProt Q9UQL6); conditions: Class 2 HDAC; cited from earlier work
[13] = target: HDAC4 (Homo sapiens, UniProt P56524); conditions: Class 2 HDAC; cited from earlier work
[14] = target: HDAC9 (Homo sapiens, UniProt Q9UKV0); conditions: Class 2 HDAC; cited from earlier work
[15] = SW13, continued exposure, 5 mM daily (FIG. 3A)
[16] = SW13, treated 72 hours, then removed
[17] = SW13, treated 72 hours, then removed (FIG. 3B)

HDAC1, sequence (Q13547 whole entry): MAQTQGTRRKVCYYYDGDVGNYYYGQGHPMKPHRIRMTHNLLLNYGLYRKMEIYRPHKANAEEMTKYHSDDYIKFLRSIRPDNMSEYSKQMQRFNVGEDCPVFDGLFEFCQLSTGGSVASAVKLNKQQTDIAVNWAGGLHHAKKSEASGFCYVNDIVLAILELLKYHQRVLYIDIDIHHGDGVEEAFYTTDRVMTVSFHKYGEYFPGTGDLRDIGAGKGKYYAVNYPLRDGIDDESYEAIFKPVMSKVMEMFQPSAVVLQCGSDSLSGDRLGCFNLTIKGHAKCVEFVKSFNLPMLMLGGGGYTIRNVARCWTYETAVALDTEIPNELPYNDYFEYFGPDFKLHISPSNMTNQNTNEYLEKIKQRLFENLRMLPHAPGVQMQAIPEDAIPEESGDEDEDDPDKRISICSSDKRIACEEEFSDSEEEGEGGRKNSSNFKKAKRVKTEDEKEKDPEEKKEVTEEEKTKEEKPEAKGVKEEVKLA
HDAC3, sequence (O15379 whole entry): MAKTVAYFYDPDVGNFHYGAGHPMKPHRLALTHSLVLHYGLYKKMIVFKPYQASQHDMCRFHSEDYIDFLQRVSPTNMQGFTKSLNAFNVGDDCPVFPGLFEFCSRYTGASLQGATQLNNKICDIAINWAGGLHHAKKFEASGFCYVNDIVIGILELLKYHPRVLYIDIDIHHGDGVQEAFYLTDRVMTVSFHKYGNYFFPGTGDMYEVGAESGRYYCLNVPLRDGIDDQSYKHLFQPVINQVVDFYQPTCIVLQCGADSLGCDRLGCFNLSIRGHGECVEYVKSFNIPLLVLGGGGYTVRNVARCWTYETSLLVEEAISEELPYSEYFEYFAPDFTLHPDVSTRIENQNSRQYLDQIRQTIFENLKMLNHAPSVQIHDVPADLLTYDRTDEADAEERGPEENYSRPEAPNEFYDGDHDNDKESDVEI
HDAC3, sequence (Q9Y618 395-489 partner limits assumed): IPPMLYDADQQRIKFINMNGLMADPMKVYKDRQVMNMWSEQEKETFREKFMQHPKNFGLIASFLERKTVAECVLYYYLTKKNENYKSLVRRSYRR
HDAC4, sequence (P56524 whole entry): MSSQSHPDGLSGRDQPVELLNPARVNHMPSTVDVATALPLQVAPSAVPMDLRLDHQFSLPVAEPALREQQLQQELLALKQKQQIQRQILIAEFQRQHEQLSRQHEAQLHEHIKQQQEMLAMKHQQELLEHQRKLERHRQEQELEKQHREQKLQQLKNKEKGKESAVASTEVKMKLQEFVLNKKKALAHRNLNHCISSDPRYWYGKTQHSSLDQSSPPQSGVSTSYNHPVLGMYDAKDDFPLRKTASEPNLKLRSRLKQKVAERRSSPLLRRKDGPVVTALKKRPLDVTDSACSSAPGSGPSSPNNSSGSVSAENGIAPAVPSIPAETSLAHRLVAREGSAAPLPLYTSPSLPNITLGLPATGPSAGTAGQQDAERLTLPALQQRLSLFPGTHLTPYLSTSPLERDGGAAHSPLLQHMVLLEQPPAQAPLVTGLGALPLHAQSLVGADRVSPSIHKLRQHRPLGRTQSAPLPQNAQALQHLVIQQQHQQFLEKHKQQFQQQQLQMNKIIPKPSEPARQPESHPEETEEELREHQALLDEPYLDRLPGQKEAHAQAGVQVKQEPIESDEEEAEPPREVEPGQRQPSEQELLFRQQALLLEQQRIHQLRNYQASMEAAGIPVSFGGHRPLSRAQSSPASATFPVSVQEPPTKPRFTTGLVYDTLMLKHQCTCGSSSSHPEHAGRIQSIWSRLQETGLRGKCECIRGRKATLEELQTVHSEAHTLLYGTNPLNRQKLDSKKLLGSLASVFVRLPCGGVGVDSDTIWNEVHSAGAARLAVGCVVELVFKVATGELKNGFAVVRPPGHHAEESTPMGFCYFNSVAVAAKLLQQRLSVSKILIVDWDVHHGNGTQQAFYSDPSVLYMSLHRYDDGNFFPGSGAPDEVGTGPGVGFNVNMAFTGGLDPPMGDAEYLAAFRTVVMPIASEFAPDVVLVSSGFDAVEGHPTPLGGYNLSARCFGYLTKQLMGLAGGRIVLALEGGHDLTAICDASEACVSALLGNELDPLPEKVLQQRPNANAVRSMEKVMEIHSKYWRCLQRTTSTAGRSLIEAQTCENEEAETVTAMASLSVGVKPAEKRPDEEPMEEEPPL
HDAC5, sequence (Q9UQL6 whole entry): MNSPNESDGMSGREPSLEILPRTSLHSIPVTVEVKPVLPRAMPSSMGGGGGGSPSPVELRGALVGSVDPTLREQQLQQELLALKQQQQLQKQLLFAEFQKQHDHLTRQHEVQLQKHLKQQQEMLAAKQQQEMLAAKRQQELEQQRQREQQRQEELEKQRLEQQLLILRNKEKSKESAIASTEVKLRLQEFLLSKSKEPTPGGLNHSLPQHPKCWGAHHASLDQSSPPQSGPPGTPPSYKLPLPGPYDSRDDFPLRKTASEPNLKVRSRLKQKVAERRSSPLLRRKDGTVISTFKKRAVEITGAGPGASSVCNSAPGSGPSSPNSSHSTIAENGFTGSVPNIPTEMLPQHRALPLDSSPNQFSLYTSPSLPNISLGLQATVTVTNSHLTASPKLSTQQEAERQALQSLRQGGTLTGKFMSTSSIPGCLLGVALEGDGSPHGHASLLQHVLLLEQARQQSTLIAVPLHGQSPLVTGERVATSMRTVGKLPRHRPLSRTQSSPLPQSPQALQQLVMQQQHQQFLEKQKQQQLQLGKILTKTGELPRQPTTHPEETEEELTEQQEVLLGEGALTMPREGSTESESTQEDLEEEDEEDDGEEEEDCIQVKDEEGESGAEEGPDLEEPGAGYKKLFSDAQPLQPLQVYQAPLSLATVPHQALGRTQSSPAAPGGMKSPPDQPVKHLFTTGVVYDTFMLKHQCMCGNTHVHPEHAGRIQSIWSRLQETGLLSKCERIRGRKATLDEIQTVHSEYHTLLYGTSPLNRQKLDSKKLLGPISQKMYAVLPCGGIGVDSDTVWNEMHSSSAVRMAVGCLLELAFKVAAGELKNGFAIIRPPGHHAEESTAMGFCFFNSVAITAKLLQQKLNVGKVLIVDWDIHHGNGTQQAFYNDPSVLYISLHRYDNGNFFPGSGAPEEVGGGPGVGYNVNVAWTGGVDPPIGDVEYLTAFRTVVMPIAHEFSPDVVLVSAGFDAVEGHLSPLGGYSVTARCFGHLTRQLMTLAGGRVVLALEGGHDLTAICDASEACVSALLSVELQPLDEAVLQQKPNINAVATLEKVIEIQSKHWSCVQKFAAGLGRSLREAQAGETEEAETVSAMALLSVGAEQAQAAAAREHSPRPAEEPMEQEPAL
HDAC9, sequence (Q9UKV0 whole entry): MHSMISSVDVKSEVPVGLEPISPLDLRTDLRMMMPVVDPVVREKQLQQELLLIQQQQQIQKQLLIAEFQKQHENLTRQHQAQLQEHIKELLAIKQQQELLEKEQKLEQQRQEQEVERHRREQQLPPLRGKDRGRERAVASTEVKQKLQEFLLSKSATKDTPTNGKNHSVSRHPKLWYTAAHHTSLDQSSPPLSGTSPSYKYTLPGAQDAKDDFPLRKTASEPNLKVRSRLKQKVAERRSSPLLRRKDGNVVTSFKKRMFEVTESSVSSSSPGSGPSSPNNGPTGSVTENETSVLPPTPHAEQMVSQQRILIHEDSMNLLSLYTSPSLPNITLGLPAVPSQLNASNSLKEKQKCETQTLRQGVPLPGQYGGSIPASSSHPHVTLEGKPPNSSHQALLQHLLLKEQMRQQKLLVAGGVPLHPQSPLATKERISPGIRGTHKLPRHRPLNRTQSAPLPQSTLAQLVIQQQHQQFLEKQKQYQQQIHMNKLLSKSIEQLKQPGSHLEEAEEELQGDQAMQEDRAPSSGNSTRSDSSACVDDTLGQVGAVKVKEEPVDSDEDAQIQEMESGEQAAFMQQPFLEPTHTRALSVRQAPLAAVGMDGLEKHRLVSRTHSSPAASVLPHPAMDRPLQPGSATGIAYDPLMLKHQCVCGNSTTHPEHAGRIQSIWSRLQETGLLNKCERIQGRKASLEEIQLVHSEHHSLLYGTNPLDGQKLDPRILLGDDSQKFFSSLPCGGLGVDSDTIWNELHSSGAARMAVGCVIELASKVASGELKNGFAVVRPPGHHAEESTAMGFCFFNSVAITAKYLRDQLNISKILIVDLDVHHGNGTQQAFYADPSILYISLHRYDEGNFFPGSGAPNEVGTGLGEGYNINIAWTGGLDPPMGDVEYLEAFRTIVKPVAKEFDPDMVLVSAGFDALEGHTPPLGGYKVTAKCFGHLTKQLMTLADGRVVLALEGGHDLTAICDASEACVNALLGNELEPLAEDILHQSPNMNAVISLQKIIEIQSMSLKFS
HDAC2, sequence (Q92769 whole entry): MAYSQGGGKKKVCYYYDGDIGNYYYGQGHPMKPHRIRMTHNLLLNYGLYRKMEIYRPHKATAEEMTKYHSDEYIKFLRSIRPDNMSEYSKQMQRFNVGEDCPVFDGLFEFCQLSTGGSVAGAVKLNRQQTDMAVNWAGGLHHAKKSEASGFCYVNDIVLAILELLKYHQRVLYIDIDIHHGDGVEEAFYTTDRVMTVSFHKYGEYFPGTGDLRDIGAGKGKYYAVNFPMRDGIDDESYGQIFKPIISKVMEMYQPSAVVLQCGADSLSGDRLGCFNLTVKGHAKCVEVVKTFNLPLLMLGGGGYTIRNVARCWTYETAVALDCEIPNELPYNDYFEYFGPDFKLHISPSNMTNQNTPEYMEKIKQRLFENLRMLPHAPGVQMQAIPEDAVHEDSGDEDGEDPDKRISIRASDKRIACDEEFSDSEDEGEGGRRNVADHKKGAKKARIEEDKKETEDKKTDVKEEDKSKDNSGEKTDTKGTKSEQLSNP

O=C1N[C@@H](Cc2ccccc2)C(=O)N2CCC[C@@H]2C(=O)N[C@@H](CCCCCC(=O)[C@@H]2CO2)C(=O)N[C@H]1Cc1ccccc1 [Trapoxin] (cyclo(FF[dP][Aoe]))
Sensitivity of HDAC3 to the inhibitor ([1]; Class 1 HDAC): Yes | IC50 [1]: ~0.1 µM | Sensitivity of HDAC10 to the inhibitor [2]: No | Sensitivity of HDAC6 to the inhibitor [3]: No

Nc1ccccc1NC(=O)c1ccc(CNC(=O)OCc2cccnc2)cc1 [MS-275]
Toxicity to cell lines compared to butyrate [4]: increased toxicity

CCCC(CCC)C(=O)O [Valpoic Acid, valproic acid]
Sensitivity of HDAC1 to the inhibitor [5]: yes | Sensitivity of HDAC2 to the inhibitor [6]: yes

Nc1ncn([C@H]2C[C@H](O)[C@@H](CO)O2)c(=O)n1 [5azaCytD, 5-aza-deoxycytidine]
Silencing of p16, semi-quantitative RT-PCR [7]: reversed

CCCC(=O)[O-].[Na+] [sodium butyrate]
Sensitivity of HDAC3 to the inhibitor [1]: Yes | IC50 [1]: ~300 µM | Time at which BRM protein levels returned to baseline after medium change ([8]; 5 mM for three consecutive days, medium changed on fourth day (FIG. 3B)): 4 to 5 days | Change in BRM expression with continued treatment for an additional 48 hours ([8]; SW13, after plateau (FIG. 3A)): Little change | Time at which BRM protein expression reached a plateau, western blot [8, 15]: 24 h | Time at which upregulation of BRM protein was detected, western blot [8, 15]: 12 h | Time BRM mRNA level remained elevated after removal, quantitative RT-PCR [8, 16]: 3 days | Time at which BRM mRNA returned to baseline after removal, quantitative RT-PCR [8, 16]: ≤ 4 days | Time BRM protein levels remained elevated after removal [8, 17]: 72 h | Time at which BRM protein returned to near baseline after removal [8, 17]: 96 h | Sensitivity of Class 3 HDACs to the inhibitor [9]: Resistance | Sensitivity of HDAC1 to the inhibitor [5]: Yes | IC50 [5]: ~300 µM | Sensitivity of HDAC8 to the inhibitor [10]: Yes | Sensitivity of HDAC10 to the inhibitor [2]: No | Induction of BRM, RT-PCR ([11]; Panc-1 and H513 cell lines, butyrate treatment): failed to demonstrate an appreciable induction | Number of the ten BRG1/BRM-deficient cell lines showing BRM transcript re-expression, RT-PCR ([11]; after butyrate treatment, of ten cell lines): eight | Upregulation of BRM, cyber-green quantitation PCR ([11]; butyrate treatment, responding BRG1/BRM-deficient cell lines): 8-20 fold | Sensitivity of HDAC6 to the inhibitor [3]: No

CC(/C=C/C(=O)NO)=C\[C@@H](C)C(=O)c1ccc(N(C)C)cc1 [Trichostatin A, trichostatin A]
Sensitivity of Class 3 HDACs to the inhibitor [9]: Resistance | Sensitivity of HDAC5 to the inhibitor [12]: Yes | Sensitivity of HDAC1 to the inhibitor [5]: Yes | Sensitivity of HDAC4 to the inhibitor [13]: Yes | Sensitivity of HDAC8 to the inhibitor [10]: Yes | Sensitivity of HDAC9 to the inhibitor [14]: Yes | Sensitivity of HDAC10 to the inhibitor [2]: Yes | Sensitivity of HDAC6 to the inhibitor [3]: Yes

C/C=C1\NC(=O)[C@H]2CSSCC/C=C/[C@H](CC(=O)N[C@H](C(C)C)C(=O)N2)OC(=O)[C@H](C(C)C)NC1=O [FR901228]
Sensitivity of HDAC3 to the inhibitor ([1]; Class 1 HDAC): Yes | Sensitivity of HDAC1 to the inhibitor [5]: Yes | Sensitivity of HDAC4 to the inhibitor [13]: weak | Sensitivity of HDAC6 to the inhibitor [3]: weak
